Here are results for 5 molecules from patent US7045545B1, “Aminoalkylbenzofurans as serotonin (5-HT(2c)) agonists” (Eli Lilly and Company, priority 1999, dated 2006).

For orientation: melting point means the temperature of the solid-liquid transition.

Molecule `CC(N)Cc1c(F)ccc2ccoc12.O=C(O)C(=O)O` (centres unmarked) showed a melting point of 200 to 202 °C.

Molecule `C[C@H](N)Cc1cc(F)cc2cc(Br)oc12.Cl` returned a melting point of 202 to 205 °C. On to `Cc1coc2c(CC(C)N)cc(F)cc12.O=C(O)C(=O)O` (centres unmarked), for which the melting point was 201 to 202 °C. As for `CC(N)Cc1cc([N+](=O)[O-])cc2ccoc12.Cl` (centres unmarked), the melting point is 216 to 217 °C (dec.). For `CC(N)Cc1ccc(F)c2ccoc12.O=C(O)C(=O)O` (centres unmarked) the value was 172 to 174 °C.
